Source: patent US20260284208A1, “SYSTEM” (Oxford University Innovation Limited, priority 2023, published 2026)

System: library of 8,380 IKZF3 degrons (ZF-eGFP/mCherry reporter) in Jurkat cells
Assay: Pooled library screen (FACS, NGS, limma voom LogFC of positive vs negative read counts)
Assay type: cell-based, human
Procedure: A library of 8,380 IKZF3 degrons was cloned into pLVX-Sprout to create the eGFP/mCherry protein degradation reporter plasmid pool. A lentivirus pool was then generated using the Lenti-X lentiviral vector production method.
Jurkat cells were transduced at a multiplicity of infection of <0.3 with the lentivirus vector library in order to maximise the number of cells with a single integration. Transductions were carried out in 6 well TC-treated cell culture dishes (Falcon) with 3×10^6 cells per well. Cells were incubated for 2 days at 37° C. and 5% CO2 before the supernatant was removed and replaced with fresh media. 6 days post-transduction, mCherry+ cells were isolated via FACS using the FACS Aria Fusion (BD) in a buffer containing PBS (Gibco), 2 mM EDTA (Gibco), 25 mM HEPES (Sigma) and 1% BSA (Sigma). 8 days later, cells were treated with DMSO or a thalidomide analog for 18 hours at 37° C. and 5% CO2. mCherry+GFPlow and NOT(mCherry+GFPlow) cells were sorted by FACS using the FACS Aria Fusion (BD). DMSO treated cells were used to set the mCherry+GFPlow gate and dead cells were excluded from sorting by staining cells with 1 μg/mL DAPI (ThermoFisher). gDNA was isolated using the Maxwell RSC 48 (Promega). gDNA from cells that were unsorted and untreated were also isolated to determine the library representation on the day of compound treatment. Throughout the screen >600× coverage of the library was maintained. 3 biological replicates were carried out with a new transduction taking place each time.
A two-step PCR was used where the first PCR (PCR1) amplified the integrated degron sequence from gDNA and the second PCR (PCR2) added Illumina adaptors and barcodes to permit multiplexing. See Supp F for PCR1 and PCR2 primers. Q5 Hot Start High-Fidelity 2× Master Mix (New England Biolabs) was used for both PCRs. Sufficient gDNA was amplified in PCR1 in order to maintain >600× coverage and amplicons were purified using solid phase reversible immobilization (SPRI) beads (Beckman Coulter). Purified PCR1 products were analysed on the Tapestation 4200 (Agilent) to confirm purity prior to proceeding to PCR2. Sufficient PCR1 product was amplified in PCR2 in order to maintain >600× coverage and amplicons were run on a 2% agarose TAE gel. Target bands were excised and purified using the NucleoSpin Gel and PCR Clean-up Kit (Machery Nagel). Amplicons were analysed on the Tapestation 4200 and quantified using Qubit dsDNA HS kit (ThermoFisher). PCR products were pooled and sequenced as paired-reads on the NovaSeq (Illumina) using a SP2 200 cycles kit (Illumina).
Count distributions, percentage of read mapping, library coverage and replicate correlation per sample were assessed for QC purposes.
To carry out the library screen, we used the same plasmid construct as in our earlier flow cytometry assays, but pooling all 8,380 mutants together into one Jurkat population, ensuring a copy number of one plasmid per cell (FIG. 4B). […] These GFP-negative cells were then separated from the remaining GFP-positive population using fluorescence activated cell sorting (FACS). These two populations were then sequenced and the relative abundance of every mutant in both populations compared to provide a log FC value for each mutant sequence. This value indicated how frequently a sequence is observed in the GFP-negative population relative to the GFP-positive population, and therefore how effective a degron it is for that particular IMID compound.

`O=C1CCC(N2C(=O)c3ccccc3C2=O)C(=O)N1` (centres unmarked) [A32, 2-(2,6-dioxopiperidin-3-yl)isoindoline-1,3-dione] showed an A32_logFC (Degron-ID 3102, SEQ ID NO 98, 46F_47Q_49P_50V_52G_53A_54D_55F_67L) of 3.4, an A32_logFC (Degron-ID 3105, SEQ ID NO 103, 46F_47Q_49P_50V_52G_53A_54G_55F_67L) of 3.381 and an A32_logFC (Degron-ID 3106, SEQ ID NO 132, 46F_47Q_49P_50V_52G_53A_54H_55F_67L) of 3.266. The A32_logFC (Degron-ID 3107, SEQ ID NO 70, 46F_47Q_49P_50V_52G_53A_54I_55F_67L) was 3.527, the A32_logFC (Degron-ID 3108, SEQ ID NO 4, 46F_47Q_49P_50V_52G_53A_54K_55F_67L) was 3.962 and the A32_logFC (Degron-ID 3109, SEQ ID NO 75, 46F_47Q_49P_50V_52G_53A_54L_55F_67L) was 3.497. It also gave an A32_logFC (Degron-ID 3110, SEQ ID NO 49, 46F_47Q_49P_50V_52G_53A_54M_55F_67L) of 3.582, an A32_logFC (Degron-ID 3111, SEQ ID NO 78, 46F_47Q_49P_50V_52G_53A_54N_55F_67L) of 3.484 and an A32_logFC (Degron-ID 3112, SEQ ID NO 5, 46F_47Q_49P_50V_52G_53A_54P_55F_67L) of 3.872. It also gave an A32_logFC (Degron-ID 3116, SEQ ID NO 9, 46F_47Q_49P_50V_52G_53A_54T_55F_67L) of 3.794, an A32_logFC (Degron-ID 3132, SEQ ID NO 73, 46F_47R_49D_50I_52G_53A_54P_55F_67L) of 3.521 and an A32_logFC (Degron-ID 3192, SEQ ID NO 53, 46F_47R_49E_50I_52G_53A_54P_55F_67L) of 3.575. The A32_logFC (Degron-ID 3252, SEQ ID NO 104, 46F_47R_49N_50I_52G_53A_54P_55F_67L) was 3.38, the A32_logFC (Degron-ID 3312, SEQ ID NO 69, 46F_47R_49P_50I_52G_53A_54P_55F_67L) was 3.528 and the A32_logFC (Degron-ID 3352, SEQ ID NO 74, 46F_47R_49P_50V_52G_53A_54P_55F_67L) was 3.513. It also gave an A32_logFC (Degron-ID 3714, SEQ ID NO 136, 46F_47T_49E_50V_52G_53A_54R_55F_67L) of 3.256, an A32_logFC (Degron-ID 3799, SEQ ID NO 121, 46F_47T_49P_50I_52G_53A_54Y_55F_67L) of 3.31 and an A32_logFC (Degron-ID 3821, SEQ ID NO 117, 46F_47T_49P_50V_52G_53A_54C_55F_67L) of 3.33. It also gave an A32_logFC (Degron-ID 3940, SEQ ID NO 110, 46F_47V_49E_50V_52G_53A_54A_55F_67L) of 3.355, an A32_logFC (Degron-ID 3954, SEQ ID NO 139, 46F_47V_49E_50V_52G_53A_54R_55F_67L) of 3.254 and an A32_logFC (Degron-ID 3955, SEQ ID NO 63, 46F_47V_49E_50V_52G_53A_54S_55F_67L) of 3.54. It also gave an A32_logFC (Degron-ID 3972, SEQ ID NO 115, 46F_47V_49N_50I_52G_53A_54P_55F_67L) of 3.332, an A32_logFC (Degron-ID 4032, SEQ ID NO 77, 46F_47V_49P_50I_52G_53A_54P_55F_67L) of 3.493 and an A32_logFC (Degron-ID 6496, SEQ ID NO 102, 46L_47C_49P_50I_52G_53F_54T_55C_67L) of 3.382. The A32_logFC (Degron-ID 6528, SEQ ID NO 135, 46L_47E_49P_50I_52G_53F_54K_55C_67L) was 3.258, the A32_logFC (Degron-ID 6536, SEQ ID NO 101, 46L_47E_49P_50I_52G_53F_54T_55C_67L) was 3.382 and the A32_logFC (Degron-ID 6539, SEQ ID NO 113, 46L_47E_49P_50I_52G_53F_54Y_55C_67L) was 3.343. It also gave an A32_logFC (Degron-ID 6700, SEQ ID NO 60, 46L_47Q_49P_50I_52G_53F_54A_55C_67L) of 3.551, an A32_logFC (Degron-ID 6703, SEQ ID NO 88, 46L_47Q_49P_50I_52G_53F_54E_55C_67L) of 3.442 and an A32_logFC (Degron-ID 6706, SEQ ID NO 122, 46L_47Q_49P_50I_52G_53F_54H_55C_67L) of 3.305. It also gave an A32_logFC (Degron-ID 6707, SEQ ID NO 85, 46L_47Q_49P_50I_52G_53F_54I_55C_67L) of 3.453, an A32_logFC (Degron-ID 6708, SEQ ID NO 96, 46L_47Q_49P_50I_52G_53F_54K_55C_67L) of 3.401 and an A32_logFC (Degron-ID 6710, SEQ ID NO 59, 46L_47Q_49P_50I_52G_53F_54M_55C_67L) of 3.553. For the same compound, the A32_logFC (Degron-ID 6713, SEQ ID NO 86, 46L_47Q_49P_50I_52G_53F_54Q_55C_67L) was 3.449, the A32_logFC (Degron-ID 6714, SEQ ID NO 111, 46L_47Q_49P_50I_52G_53F_54R_55C_67L) was 3.346 and the A32_logFC (Degron-ID 6715, SEQ ID NO 66, 46L_47Q_49P_50I_52G_53F_54S_55C_67L) was 3.532. For the same compound, the A32_logFC (Degron-ID 6719, SEQ ID NO 81, 46L_47Q_49P_50I_52G_53F_54Y_55C_67L) was 3.469, the A32_logFC (Degron-ID 6732, SEQ ID NO 89, 46L_47R_49P_50I_52G_53F_54P_55C_67L) was 3.438 and the A32_logFC (Degron-ID 6775, SEQ ID NO 76, 46L_47T_49P_50I_52G_53F_54S_55C_67L) was 3.495. The A32_logFC (Degron-ID 6776, SEQ ID NO 87, 46L_47T_49P_50I_52G_53F_54T_55C_67L) was 3.444, the A32_logFC (Degron-ID 6780, SEQ ID NO 57, 46L_47V_49P_50I_52G_53F_54A_55C_67L) was 3.558 and the A32_logFC (Degron-ID 6795, SEQ ID NO 48, 46L_47V_49P_50I_52G_53F_54S_55C_67L) was 3.587. It also gave an A32_logFC (Degron-ID 7840, SEQ ID NO 95, 46L_47Q_49E_50I_52G_53F_54A_55C_67L) of 3.402, an A32_logFC (Degron-ID 7848, SEQ ID NO 131, 46L_47Q_49E_50I_52G_53F_54K_55C_67L) of 3.267 and an A32_logFC (Degron-ID 7853, SEQ ID NO 124, 46L_47Q_49E_50I_52G_53F_54Q_55C_67L) of 3.298. For the same compound, the A32_logFC (Degron-ID 7854, SEQ ID NO 52, 46L_47Q_49E_50I_52G_53F_54R_55C_67L) was 3.575, the A32_logFC (Degron-ID 7855, SEQ ID NO 51, 46L_47Q_49E_50I_52G_53F_54S_55C_67L) was 3.576 and the A32_logFC (Degron-ID 7857, SEQ ID NO 99, 46L_47Q_49E_50I_52G_53F_54V_55C_67L) was 3.397. The A32_logFC (Degron-ID 7934, SEQ ID NO 128, 46L_47V_49E_50I_52G_53F_54R_55C_67L) was 3.277 and the A32_logFC (Degron-ID 7935, SEQ ID NO 118, 46L_47V_49E_50I_52G_53F_54S_55C_67L) was 3.326.
